Measured values taken from patent US20100010046A1, “PHARMACEUTICAL FORMULATION FOR PARENTERAL ADMINISTRATION” (IRONWOOD PHARMACEUTICALS, INC., priority 2006, published 2010).

What was measured:
[1] = test system: isolated canine parietal cell preparation; assay: Inhibition of histamine-stimulated acid secretion in an isolated canine parietal cell preparation; type: cell-based; details: Canis lupus familiaris, read-out: IC50 (nM), concentration required to inhibit 50% of maximal histamine-stimulated acid secretion
From the text: Concentrations required to inhibit 50% of maximal histamine-stimulated acid secretion in an isolated canine parietal cell preparation is shown in Table 1 below.

[2] = test system: indomethacin-induced rat gastric ulcers; details: subcutaneous, 50 μg/kg; cited from earlier work
[3] = room temperature; presence of water (U.S. Pat. No. 5,324,746); cited from earlier work

## CCCCC(C)(O)C/C=C/[C@H]1C(O)CC(=O)[C@@H]1CCCCCCC(=O)OC (stereo partly drawn) [Misoprostol]
[1]
  IC50: 3.8 nM
[2]
  reduced lesion formulation: up to 60%
[3]
  chemical stability: chemically unstable at room temperature and breaks down in the presence of water
